# According to patent publication US10335409B2 (priority 2012, dated 2019):
# What was measured:
# [1] = tested on: genotype 2a (JFH-1) stable HCV replicon in Huh-7-derived cells; experiment: Stable subgenomic HCV replicon EC50, genotype 2a (Renilla luciferase); assay type: cell-based, hepatitis C virus; settings: Hepatitis C virus, stable replicon genotype 2a, 72 h, read-out: EC50 2A RLUC
# Outline: (§1)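 Compounds, three-fold diluted, were applied to Huh-7-derived cells harbouring luciferase replicons (genotype 1a H77, 1b Con1, 2a JFH-1, 4a ED43, with strain-specific adaptive mutations). Seventy-two hours later, intracellular replication was gauged by Renilla luciferase activity and EC50 derived by regression.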
# [2] = tested on: genotype 1a (H77) wild type transient HCV replicon in Huh-7-derived cells; experiment: Transient-transfected HCV replicon EC50, genotype 1a wild type; assay type: cell-based, hepatitis C virus; settings: Hepatitis C virus, 72 h, transient-transfected replicon genotype 1a wild type, read-out: EC50 1A WT
# [3] = tested on: genotype 4a (ED43) stable HCV replicon in Huh-7-derived cells; experiment: Stable subgenomic HCV replicon EC50, genotype 4a (Renilla luciferase); assay type: cell-based, hepatitis C virus; settings: Hepatitis C virus, 72 h, read-out: EC50 4A RLUC
# Outline: as §1
# [4] = tested on: genotype 1b (Con1) wild type transient HCV replicon in Huh-7-derived cells; experiment: Transient-transfected HCV replicon EC50, genotype 1b wild type; assay type: cell-based, hepatitis C virus; settings: Hepatitis C virus, 72 h, transient-transfected replicon genotype 1b wild type, read-out: EC50 1B WT
# [5] = target: HCV NS3 protease domain genotype 3a (Hepatitis C virus genotype 3a, UniProt Q81258); experiment: Ki determination, NS3 protease genotype 3a (fluorogenic depsipeptide substrate); assay type: biochemical; settings: 200 pM enzyme, NS4A peptide
# Outline: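 The NS3 protease domain (aa 1-181) with 20 μM NS4A peptide was used at 50 pM with 4 μM substrate (1b) or at 200 pM with 2 μM substrate (3a). Inhibitors (100 nM-5 pM) were pre-incubated 1 h at room temperature in HEPES/glycerol/DTT buffer with 10% DMSO. Steady-state rates (90-120 min) gave Ki via the Morrison equation, corrected for active enzyme and [S]/Km.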
# [6] = tested on: genotype 3a (S52) stable HCV replicon in Huh-7-derived cells; experiment: Stable subgenomic HCV replicon EC50, genotype 3a (Renilla luciferase); assay type: cell-based, hepatitis C virus; settings: Hepatitis C virus, 72 h, read-out: EC50 3A RLUC
# [7] = tested on: genotype 1a (H77) stable HCV replicon in Huh-7-derived cells; experiment: Stable subgenomic HCV replicon EC50, genotype 1a (Renilla luciferase); assay type: cell-based, hepatitis C virus; settings: Hepatitis C virus, stable replicon genotype 1a, 72 h, read-out: EC50 1A RLUC
# Outline: as §1
# [8] = tested on: genotype 3a (S52) wild type transient HCV replicon in Huh-7-derived cells; experiment: Transient-transfected HCV replicon EC50, genotype 3a wild type; assay type: cell-based, hepatitis C virus; settings: Hepatitis C virus; transient-transfected replicon genotype 3a wild type, 72 h; read-out: EC50 3A WT
# [9] = target: HCV NS3 protease domain genotype 1b (Hepatitis C virus genotype 1b (isolate Con1), UniProt Q9WMX2, E1202G); experiment: Ki determination, NS3 protease genotype 1b (fluorogenic depsipeptide substrate); assay type: biochemical; settings: 50 pM enzyme, NS4A peptide
# [10] = tested on: genotype 1a NS3/4a protease inhibitor resistant variant R155K transient HCV replicon in Huh-7-derived cells; experiment: Transient-transfected HCV replicon EC50, genotype 1a R155K; assay type: cell-based, hepatitis C virus; settings: Hepatitis C virus, 72 h, read-out: EC50 1A R155K, transient-transfected replicon genotype 1a R155K resistant variant, 72 h
# [11] = tested on: genotype 1b (Con1) stable HCV replicon in Huh-7-derived cells; experiment: Stable subgenomic HCV replicon EC50, genotype 1b (Renilla luciferase); assay type: cell-based, hepatitis C virus; settings: Hepatitis C virus, stable replicon genotype 1b, 72 h, read-out: EC50 1B RLUC
# Outline: as §1
# [12] = tested on: genotype 1b NS3/4a protease inhibitor resistant variant D168A transient HCV replicon in Huh-7-derived cells; experiment: Transient-transfected HCV replicon EC50, genotype 1b D168A; assay type: cell-based, hepatitis C virus; settings: Hepatitis C virus, 72 h, read-out: EC50 1B D168A, transient-transfected replicon genotype 1b D168A resistant variant, 72 h
# Sequence of HCV NS3 protease domain genotype 1b (Q9WMX2 1027-1208 E1202G): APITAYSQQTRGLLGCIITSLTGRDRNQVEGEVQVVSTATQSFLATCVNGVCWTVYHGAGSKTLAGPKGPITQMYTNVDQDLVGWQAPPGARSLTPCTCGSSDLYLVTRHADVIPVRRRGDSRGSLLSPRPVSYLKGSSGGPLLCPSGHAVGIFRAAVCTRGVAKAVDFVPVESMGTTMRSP
# Sequence of HCV NS3 protease domain genotype 3a (Q81258 whole entry, looked up, the tested form may be a part): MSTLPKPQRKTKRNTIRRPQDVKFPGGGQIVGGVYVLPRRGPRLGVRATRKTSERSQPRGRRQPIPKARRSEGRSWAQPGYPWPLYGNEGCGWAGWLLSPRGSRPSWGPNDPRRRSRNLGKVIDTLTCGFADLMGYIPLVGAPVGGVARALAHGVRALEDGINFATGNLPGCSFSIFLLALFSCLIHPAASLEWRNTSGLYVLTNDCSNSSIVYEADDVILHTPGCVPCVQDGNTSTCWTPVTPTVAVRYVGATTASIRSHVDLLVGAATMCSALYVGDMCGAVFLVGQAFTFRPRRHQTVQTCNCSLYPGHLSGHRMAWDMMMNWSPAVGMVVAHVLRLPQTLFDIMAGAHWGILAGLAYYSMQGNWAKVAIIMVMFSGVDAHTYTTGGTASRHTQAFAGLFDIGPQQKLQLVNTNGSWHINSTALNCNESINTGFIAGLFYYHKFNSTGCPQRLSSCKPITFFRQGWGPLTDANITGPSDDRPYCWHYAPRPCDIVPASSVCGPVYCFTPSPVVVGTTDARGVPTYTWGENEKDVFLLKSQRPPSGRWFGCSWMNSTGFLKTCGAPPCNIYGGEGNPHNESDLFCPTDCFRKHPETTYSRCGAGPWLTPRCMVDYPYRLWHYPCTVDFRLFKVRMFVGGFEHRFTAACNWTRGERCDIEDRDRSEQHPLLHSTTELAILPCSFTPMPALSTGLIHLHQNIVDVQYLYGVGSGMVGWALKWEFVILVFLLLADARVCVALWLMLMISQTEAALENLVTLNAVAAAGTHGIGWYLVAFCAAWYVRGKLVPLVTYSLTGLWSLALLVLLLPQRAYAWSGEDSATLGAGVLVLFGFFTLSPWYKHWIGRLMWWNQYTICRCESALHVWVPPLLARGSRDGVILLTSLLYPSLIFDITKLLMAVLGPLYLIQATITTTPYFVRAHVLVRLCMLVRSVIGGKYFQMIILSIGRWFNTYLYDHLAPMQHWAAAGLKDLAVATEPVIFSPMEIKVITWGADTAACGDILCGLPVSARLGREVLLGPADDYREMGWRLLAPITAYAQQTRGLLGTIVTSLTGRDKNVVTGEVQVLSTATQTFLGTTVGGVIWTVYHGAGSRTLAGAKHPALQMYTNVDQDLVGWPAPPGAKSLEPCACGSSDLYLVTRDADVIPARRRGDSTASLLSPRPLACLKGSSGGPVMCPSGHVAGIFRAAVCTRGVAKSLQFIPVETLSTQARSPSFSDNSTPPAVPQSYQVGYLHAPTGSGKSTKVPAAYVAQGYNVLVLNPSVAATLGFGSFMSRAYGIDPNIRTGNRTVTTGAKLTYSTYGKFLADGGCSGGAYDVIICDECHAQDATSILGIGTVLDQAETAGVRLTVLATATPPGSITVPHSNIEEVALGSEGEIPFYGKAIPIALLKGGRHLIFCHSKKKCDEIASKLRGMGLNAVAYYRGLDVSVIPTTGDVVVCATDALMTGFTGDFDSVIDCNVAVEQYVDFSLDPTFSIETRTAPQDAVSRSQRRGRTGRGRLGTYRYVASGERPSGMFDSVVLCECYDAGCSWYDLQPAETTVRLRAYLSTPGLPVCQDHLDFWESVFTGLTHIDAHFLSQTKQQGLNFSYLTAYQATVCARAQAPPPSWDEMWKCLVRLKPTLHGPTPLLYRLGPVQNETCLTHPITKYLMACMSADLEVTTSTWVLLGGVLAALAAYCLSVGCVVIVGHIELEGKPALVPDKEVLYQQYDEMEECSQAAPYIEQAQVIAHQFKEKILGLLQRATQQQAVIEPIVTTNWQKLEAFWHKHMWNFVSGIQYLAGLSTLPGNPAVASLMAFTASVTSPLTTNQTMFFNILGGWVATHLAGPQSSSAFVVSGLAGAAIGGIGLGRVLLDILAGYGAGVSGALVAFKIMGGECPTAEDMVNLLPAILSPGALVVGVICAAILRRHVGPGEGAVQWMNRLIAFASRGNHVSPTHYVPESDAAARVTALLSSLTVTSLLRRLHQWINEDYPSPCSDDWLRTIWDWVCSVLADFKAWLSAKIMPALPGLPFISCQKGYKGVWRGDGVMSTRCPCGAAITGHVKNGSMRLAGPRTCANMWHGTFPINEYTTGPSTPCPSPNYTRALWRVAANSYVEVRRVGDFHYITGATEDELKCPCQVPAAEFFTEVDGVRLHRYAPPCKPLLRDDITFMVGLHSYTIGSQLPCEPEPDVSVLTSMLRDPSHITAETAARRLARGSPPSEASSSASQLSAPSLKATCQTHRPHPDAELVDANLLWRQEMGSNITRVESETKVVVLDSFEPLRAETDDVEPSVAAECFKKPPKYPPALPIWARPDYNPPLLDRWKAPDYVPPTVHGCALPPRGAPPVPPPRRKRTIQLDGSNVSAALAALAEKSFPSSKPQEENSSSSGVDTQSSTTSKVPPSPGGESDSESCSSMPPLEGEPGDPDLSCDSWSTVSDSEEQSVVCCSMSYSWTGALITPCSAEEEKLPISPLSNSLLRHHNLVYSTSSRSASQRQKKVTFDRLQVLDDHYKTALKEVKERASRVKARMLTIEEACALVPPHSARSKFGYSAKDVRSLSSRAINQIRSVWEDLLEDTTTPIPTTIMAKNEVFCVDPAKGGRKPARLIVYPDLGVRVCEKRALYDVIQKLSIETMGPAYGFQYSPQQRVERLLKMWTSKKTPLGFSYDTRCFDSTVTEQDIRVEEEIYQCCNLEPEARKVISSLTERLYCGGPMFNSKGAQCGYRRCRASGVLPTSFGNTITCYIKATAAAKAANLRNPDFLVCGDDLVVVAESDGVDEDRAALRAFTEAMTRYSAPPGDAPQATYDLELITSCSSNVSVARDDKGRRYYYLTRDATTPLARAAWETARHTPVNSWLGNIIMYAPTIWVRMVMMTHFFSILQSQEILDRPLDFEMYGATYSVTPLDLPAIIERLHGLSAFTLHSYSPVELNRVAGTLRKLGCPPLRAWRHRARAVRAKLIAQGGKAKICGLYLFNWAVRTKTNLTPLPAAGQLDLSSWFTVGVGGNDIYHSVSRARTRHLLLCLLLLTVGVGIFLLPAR
Structure (SMILES),EC50 [1] [nM],EC50 [2] [nM],EC50 [3] [nM],EC50 [4] [nM],Ki [5] [nM],EC50 [6] [nM],EC50 [7] [nM],EC50 [8] [nM],Ki [9] [nM],EC50 [10] [nM],EC50 [11] [nM],EC50 [12] [nM]
"CC[C@@H]1[C@@H]2CN(C(=O)[C@H](C(C)(C)C)NC(=O)O[C@@H]3C[C@H]3CCCCC(F)(F)c3nc4ccc(OC(F)(F)F)cc4nc3O2)[C@@H]1C(=O)N[C@]1(C(=O)NS(=O)(=O)C2(C)CC2)C[C@H]1C(F)F [Example 83, (1aR,5S,8S,9S,10R,22aR)-5-tert-butyl-N-[(1R,2R)-2-(difluoromethyl)-1-{[(1-methylcyclopropyl)sulfonyl]carbamoyl}cyclopropyl]-9-ethyl-18,18-difluoro-3,6-dioxo-14-(trifluoromethoxy)-1,1a,3,4,5,6,9,10,18,19,20,21,22,22a-tetradecahydro-8H-7,10-methanocyclopropa[18,19][1,10,3,6]dioxadiazacyclononadecino[11,12-b]quinoxaline-8-carboxamide]",19,62,42,27,0.48,1220,62,300,0.09,133,58,202
"C[C@@H]1[C@@H]2CN(C(=O)[C@H](C(C)(C)C)NC(=O)O[C@@H]3C[C@@H]4C[C@@H]4[C@H]3CCCCCc3nc4ccc(F)cc4nc3O2)[C@@H]1C(=O)N[C@]1(C(=O)NS(=O)(=O)C2(C)CC2)C[C@H]1C(F)F [Example 86, (1aS,2aR,6S,9S,10S,11R,23aR,23bS)-6-tert-butyl-N-[(1R,2R)-2-(difluoromethyl)-1-{[(1-methylcyclopropyl)sulfonyl]carbamoyl}cyclopropyl]-15-fluoro-10-methyl-4,7-dioxo-1a,2,2a,4,5,6,7,10,11,19,20,21,22,23,23a,23b-hexadecahydro-1H,9H-8,11-methanocyclopropa[4′,5′]cyclopenta[1′,2′:18,19][1,10,3,6]dioxadiazacyclononadecino[11,12-b]quinoxaline-9-carboxamide]",5.9,4,5.7,3.4,0.07,42,5.6,16,0.04,3.7,5.5,10
